Assay results taken from patent US20250345321A1, “CATEQUENTINIB (ANLOTINIB) IN SEQUENTIAL COMBINATION WITH IMMUNOTHERAPY FOR USE IN THE TREATMENT OF CANCER” (ADVENCHEN PHARMACEUTICALS, LLC, priority 2019, published 2025).
Structures can show the parent of a compound that is named as a salt.

Experiments:
[1] = tested on: recurrent or advanced endometrial, ovarian, and cervical cancer; assay: Phase 1 efficacy of AL3818 with standard platinum-based chemotherapy (best response); format: in vivo, human; design: key to Best response: stable disease (SD); partial response (PR); complete response (CR)
Excerpt: Patients in this trial were females with recurrent or advanced endometrial, ovarian, and cervical cancer.
In this described study, all patients received at least one dose of AL3818 dihydrochloride orally. Aside of three patients were permanent discharged from this study due to severe adverse events (SAE), the other six patients' best response ranged from stable disease (SD) (⅙, 16.7%), partial response (PR) ( 4/6, 66.6%) to complete response (CR) (⅙, 16.7%).
1. The daily dosage of compound AL3818 was the initial dosage that administrated to the patients, which might subject to a dosage reduction if serious side-effects were observed.
2. The best response represented the most favorable outcome during the entire treatment, regardless of the possible disease progression (PD) after that.

[2] = tested on: endometrial cancer; assay: Phase 2a efficacy of AL3818 with standard platinum-based chemotherapy, endometrial cancer patients; format: in vivo, human; design: key to Best response: stable disease (SD); partial response (PR); complete response (CR)
Experimental: (§1) Phase 1 was completed in Q1 2017 at one study site to determine the recommend phase 2 dose (RP2D). The RP2D was determined to be AL3818 dihydrochloride 8 mg orally once daily in 21-day cycles (14 days on treatment, 7 days off treatment) on Day 8 to Day 21 of the cycle with platinum-based chemotherapy on Day 1 of the cycle.
(§2) Phase 2a is currently ongoing at four study sites in the U.S. The first subject was enrolled in April 2017. As of December 2018, 48 subjects with recurrent or metastatic endometrial, ovarian, and cervical cancer have been enrolled. 24 subjects are still on treatment and 24 subjects have discontinued treatment. 21 endometrial cancer subjects have been enrolled, 9 subjects have discontinued treatment. 8 subjects discontinued due to disease progression, 1 subject discontinued due to toxicity. 12 subjects remain on treatment.
Combining Phase 1 and Phase 2a subjects, 24 subjects with endometrial cancer have been enrolled in study AL3818-US-002. 19 subjects have had evaluable responses as of December 2018. There were eight subjects enrolled in Phase 2a of the study as first-line treatment.

[3] = tested on: ovarian cancer; assay: Phase 2a efficacy of AL3818 with standard platinum-based chemotherapy, ovarian cancer patients; format: in vivo, human; design: key: stable disease (SD); partial response (PR); complete response (CR); conditions: single ovarian cancer subjects, 8 mg daily + chemotherapy, December 2018, PtR = platinum resistant
Experimental: as §1, §2

[4] = Phase 2a chemo combination trial: TEAEs and toxicity; format: in vivo, human
Experimental: as §1, §2

[5] = Phase 1 chemo combination dosing de-escalation trial: safety, tolerability, DLT events
Excerpt: A Phase 1 trial was designed to determine the recommended phase 2 dose (RP2D) for part 2 (phase 2a) of the study.
In this presented chemo combination therapy regimen, in the first day of the 21-day cycle, standard platinum-based chemotherapeutic agents were administrated intravenously to the patients. […] 1-6 cycles of chemotherapy were applied for each individual patient.
After the intravenous (IV) chemotherapy on the Day 1, Day 2 to Day 7 was the therapy free period.
From Day 22 (C2D1) (CXDY is the abbreviation for Cycle X Day Y. For example, C2D1 represents Cycle 2 Day 1), a new cycle began, paclitaxel and carboplatin (or cisplatin for cervical cancer) were administrated to the patients and Day 23 to Day 28 (C2D2 • C2D7) was the therapy free period again.
The first 21-day cycle plus 7 days (C1D1-C2D8 or Day 1 to Day28) was crucial in this regimen and it was called the primary safety evaluation period. The recommended phase 2 dose (RP2D) was obtained by evaluating according to the standard for the dose limiting toxicity (DLT) events of patients in this period of time.
This evaluation period could be extended to the end of second cycle for the patients who passed the primary safety evaluation period.
In this embodiment, if any serious dose limiting toxicity (DLT) events or other serious side effects occurred, according to the serious level, the patients might require to withdraw the treatment, reduce the dose of medication or switch to other medications.

[6] = AL3818 combination therapy with Nivolumab Phase I trial (DLT); format: in vivo, human; conditions: 10 mg oral Day 1-14 + Nivolumab 240 mg infusion Day 1 and Day 15 per 28 days; six sarcoma subjects
Excerpt: AL3818 and Nivolumab administrations are both started on Day 1.
Nivolumab is administrated via infusion on Day 1 and Day 15 for twice per 28 days, 21 days as one cycle will still be applied for the combination therapy. Nivolumab can be administrated via infusion on Day 1 once per 28 days, 21 days as one cycle will still be applied for the combination therapy. AL3818 is administrated orally from Day 1 to Day 14 and off from Day 15 to Day 21 for 21 days as one cycle. Nivolumab is administrated via infusion on Day 1 and Day 15 for twice per 28 days starting dose at 240 mg twice per 28 days. Nivolumab can be optionally administrated via infusion on Day 1 once per 28 days at 480 mg. AL3818 is administrated orally at Day 1-Day 14 at starting dose of 12 mg.
Treatments of subject 001 (liposarcoma), 002 (synovial sarcoma), 003 (angiosarcoma), 004 (leiomyosarcoma), 005 (undifferentiated pleomorphic sarcoma) and 006 (leiomyosarcoma) at 10 mg oral dosing Day 1-14 combing with Nivolumab at Day 1 and Day 15 for twice per 28 days starting dose at 240 mg infusion have been completed with one DLT (subject 002). Dose escalation to 12 mg combination therapies with Nivolumab with cervical cancer subject and other sarcoma subjects are ongoing.

[7] = biological target: VEGFR1 (Homo sapiens, UniProt P17948); conditions: cited from earlier work
VEGFR1, sequence (P17948 27-1338): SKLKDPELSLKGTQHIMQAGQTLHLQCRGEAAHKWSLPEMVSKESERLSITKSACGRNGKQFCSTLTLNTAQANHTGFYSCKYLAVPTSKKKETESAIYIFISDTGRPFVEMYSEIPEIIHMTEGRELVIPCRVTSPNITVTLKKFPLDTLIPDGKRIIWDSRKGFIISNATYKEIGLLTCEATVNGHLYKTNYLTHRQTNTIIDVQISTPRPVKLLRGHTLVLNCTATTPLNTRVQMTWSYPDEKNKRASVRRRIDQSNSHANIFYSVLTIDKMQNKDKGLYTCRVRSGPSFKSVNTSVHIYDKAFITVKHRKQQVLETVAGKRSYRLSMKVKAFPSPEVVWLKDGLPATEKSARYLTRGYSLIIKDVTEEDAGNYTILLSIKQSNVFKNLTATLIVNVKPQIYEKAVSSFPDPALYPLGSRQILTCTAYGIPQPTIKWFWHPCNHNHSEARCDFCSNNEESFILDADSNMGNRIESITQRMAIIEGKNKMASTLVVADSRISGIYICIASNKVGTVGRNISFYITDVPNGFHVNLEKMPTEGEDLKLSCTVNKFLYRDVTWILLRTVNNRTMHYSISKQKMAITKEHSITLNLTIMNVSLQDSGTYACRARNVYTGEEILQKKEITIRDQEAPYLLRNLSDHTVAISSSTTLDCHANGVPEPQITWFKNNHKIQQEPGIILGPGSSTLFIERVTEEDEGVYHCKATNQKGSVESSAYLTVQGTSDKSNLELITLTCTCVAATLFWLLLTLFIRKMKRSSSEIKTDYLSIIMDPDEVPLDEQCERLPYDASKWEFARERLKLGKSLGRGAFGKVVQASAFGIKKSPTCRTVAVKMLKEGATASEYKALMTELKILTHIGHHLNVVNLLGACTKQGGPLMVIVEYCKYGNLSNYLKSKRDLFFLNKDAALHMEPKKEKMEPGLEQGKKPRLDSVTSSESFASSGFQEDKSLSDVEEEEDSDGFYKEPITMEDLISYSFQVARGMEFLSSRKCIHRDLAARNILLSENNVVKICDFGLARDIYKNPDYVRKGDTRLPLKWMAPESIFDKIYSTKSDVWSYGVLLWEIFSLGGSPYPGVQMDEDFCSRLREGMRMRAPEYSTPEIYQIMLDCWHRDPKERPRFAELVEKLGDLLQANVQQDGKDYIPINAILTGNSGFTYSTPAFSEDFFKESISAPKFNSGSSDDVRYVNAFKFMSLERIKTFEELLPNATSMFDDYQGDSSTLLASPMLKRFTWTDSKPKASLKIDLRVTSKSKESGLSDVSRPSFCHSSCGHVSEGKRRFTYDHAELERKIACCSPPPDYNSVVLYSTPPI

[8] = biological target: VEGFR2/KDR (Homo sapiens, UniProt P35968); conditions: cited from earlier work
VEGFR2/KDR, sequence (P35968 20-1356): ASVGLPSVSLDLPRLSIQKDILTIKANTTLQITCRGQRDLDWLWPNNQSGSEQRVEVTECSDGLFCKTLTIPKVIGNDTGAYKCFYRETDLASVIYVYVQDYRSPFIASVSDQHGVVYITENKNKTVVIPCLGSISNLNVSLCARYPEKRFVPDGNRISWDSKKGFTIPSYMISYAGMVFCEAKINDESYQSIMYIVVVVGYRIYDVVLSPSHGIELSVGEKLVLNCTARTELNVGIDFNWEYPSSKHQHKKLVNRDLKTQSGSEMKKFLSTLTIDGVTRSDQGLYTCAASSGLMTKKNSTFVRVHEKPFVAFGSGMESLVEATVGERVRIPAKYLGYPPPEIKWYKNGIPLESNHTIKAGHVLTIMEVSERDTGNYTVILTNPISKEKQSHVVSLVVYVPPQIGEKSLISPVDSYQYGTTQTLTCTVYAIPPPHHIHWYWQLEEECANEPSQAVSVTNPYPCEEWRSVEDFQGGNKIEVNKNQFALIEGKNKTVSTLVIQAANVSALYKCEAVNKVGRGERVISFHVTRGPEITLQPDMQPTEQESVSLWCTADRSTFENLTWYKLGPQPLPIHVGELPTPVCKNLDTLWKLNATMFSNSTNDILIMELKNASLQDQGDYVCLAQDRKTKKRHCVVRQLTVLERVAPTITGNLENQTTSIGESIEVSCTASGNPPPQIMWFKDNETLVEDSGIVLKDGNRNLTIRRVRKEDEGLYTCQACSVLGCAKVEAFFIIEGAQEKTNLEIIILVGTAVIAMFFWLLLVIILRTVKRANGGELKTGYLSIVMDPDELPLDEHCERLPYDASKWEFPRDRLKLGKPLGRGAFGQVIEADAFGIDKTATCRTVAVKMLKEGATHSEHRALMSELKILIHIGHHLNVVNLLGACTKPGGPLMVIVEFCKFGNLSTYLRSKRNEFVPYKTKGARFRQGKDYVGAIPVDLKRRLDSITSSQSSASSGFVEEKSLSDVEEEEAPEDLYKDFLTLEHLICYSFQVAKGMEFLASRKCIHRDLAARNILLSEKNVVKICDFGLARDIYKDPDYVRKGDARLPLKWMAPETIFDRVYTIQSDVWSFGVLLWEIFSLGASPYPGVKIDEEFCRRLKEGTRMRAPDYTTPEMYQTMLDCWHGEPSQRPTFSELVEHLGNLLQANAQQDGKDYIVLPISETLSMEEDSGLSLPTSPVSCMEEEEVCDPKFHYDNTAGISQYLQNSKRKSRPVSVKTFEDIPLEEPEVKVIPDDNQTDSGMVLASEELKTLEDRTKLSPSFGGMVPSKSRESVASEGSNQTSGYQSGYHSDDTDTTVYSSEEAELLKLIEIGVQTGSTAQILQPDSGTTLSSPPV

[9] = biological target: VEGFR3 (Homo sapiens, UniProt P35916); conditions: cited from earlier work
[10] = biological target: FGFR1 (Homo sapiens, UniProt P11362); conditions: cited from earlier work
FGFR1, sequence (P11362 22-822): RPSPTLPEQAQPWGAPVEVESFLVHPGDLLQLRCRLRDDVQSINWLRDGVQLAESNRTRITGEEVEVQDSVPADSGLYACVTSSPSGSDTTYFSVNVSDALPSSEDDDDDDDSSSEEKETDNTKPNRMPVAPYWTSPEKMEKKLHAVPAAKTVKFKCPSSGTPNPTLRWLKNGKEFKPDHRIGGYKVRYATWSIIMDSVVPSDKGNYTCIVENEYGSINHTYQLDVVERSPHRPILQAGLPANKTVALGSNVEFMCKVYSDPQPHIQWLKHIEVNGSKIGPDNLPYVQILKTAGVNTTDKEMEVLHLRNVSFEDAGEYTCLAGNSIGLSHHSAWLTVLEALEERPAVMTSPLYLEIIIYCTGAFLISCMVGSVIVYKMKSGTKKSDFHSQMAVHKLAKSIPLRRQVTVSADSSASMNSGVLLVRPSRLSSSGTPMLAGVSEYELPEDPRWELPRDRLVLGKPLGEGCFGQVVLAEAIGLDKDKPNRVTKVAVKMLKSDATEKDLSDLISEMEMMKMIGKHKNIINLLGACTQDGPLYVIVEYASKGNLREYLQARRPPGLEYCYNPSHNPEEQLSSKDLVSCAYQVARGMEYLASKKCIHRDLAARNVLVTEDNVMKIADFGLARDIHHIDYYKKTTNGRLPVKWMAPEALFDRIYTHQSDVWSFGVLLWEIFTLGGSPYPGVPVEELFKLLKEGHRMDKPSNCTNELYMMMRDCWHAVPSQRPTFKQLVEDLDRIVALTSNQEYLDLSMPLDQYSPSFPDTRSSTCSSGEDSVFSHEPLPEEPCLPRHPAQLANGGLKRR

[11] = biological target: FGFR2 (Homo sapiens, UniProt P21802); conditions: cited from earlier work
FGFR2, sequence (P21802 22-821): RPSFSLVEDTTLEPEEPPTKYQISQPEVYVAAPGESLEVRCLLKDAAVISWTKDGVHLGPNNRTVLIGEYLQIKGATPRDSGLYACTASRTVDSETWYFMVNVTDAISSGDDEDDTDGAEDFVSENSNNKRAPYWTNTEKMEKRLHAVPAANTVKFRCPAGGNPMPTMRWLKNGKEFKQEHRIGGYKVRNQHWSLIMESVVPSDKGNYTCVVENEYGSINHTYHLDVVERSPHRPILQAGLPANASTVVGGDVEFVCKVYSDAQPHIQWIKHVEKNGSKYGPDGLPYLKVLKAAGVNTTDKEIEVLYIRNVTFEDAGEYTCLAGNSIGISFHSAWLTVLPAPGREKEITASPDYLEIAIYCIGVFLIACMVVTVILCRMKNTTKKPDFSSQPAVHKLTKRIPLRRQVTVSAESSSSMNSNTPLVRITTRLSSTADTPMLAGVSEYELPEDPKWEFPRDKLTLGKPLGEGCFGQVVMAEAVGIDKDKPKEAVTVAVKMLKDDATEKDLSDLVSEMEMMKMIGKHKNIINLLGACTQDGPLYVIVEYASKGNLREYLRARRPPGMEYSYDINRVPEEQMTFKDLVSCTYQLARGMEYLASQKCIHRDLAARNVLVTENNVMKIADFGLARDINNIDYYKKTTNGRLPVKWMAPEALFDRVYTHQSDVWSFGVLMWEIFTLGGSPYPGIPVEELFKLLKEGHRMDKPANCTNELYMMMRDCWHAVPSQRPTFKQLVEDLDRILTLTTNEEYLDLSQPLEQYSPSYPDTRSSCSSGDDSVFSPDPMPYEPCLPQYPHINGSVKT

[12] = biological target: FGFR3 (Homo sapiens, UniProt P22607); conditions: cited from earlier work
FGFR3, sequence (P22607 23-806): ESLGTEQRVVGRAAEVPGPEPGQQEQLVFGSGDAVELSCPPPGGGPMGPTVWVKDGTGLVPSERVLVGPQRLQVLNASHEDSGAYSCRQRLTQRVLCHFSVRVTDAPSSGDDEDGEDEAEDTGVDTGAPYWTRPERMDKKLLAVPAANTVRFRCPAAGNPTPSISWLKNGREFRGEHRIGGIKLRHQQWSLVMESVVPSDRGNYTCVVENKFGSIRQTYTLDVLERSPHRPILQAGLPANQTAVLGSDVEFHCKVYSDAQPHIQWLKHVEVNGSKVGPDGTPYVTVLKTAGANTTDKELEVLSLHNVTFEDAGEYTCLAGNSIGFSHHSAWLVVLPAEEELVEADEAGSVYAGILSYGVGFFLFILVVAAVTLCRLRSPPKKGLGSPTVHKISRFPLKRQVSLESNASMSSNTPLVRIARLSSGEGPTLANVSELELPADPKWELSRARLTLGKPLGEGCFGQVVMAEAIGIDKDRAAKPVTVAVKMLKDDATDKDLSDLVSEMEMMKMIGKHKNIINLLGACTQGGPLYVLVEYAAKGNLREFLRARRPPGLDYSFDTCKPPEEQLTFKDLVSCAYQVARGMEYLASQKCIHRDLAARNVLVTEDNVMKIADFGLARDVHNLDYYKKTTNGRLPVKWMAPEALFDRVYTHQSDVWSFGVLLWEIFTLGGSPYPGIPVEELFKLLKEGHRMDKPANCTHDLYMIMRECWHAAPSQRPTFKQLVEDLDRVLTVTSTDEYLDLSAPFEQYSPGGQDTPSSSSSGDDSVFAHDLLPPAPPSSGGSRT

[13] = biological target: PDGFR-a (Homo sapiens, UniProt P16234); conditions: cited from earlier work
[14] = biological target: c-KIT (Homo sapiens, UniProt P10721); conditions: cited from earlier work
[15] = tested on: tumor; conditions: mouse model, disclosed in earlier filing; cited from earlier work
[16] = single subject, ovarian cancer, daily dosage 8 mg + standard paclitaxel and carboplatin
[17] = single subjects, endometrial cancer, daily dosage 8 mg + standard paclitaxel and carboplatin
[18] = single subjects, ovarian cancer, initial daily dosage 12 mg + standard platinum-based chemotherapy
[19] = 21 endometrial cancer subjects enrolled in Phase 2a, December 2018
[20] = endometrial cancer, second- and further-line treatment, eleven subjects

Compound: COc1cc2c(Oc3ccc4[nH]c(C)cc4c3F)ccnc2cc1OCC1(N)CC1 [AL3818 dihydrochloride]
- share of patients with best response complete response (CR) ([1]; Phase 1, six evaluable patients (1/6)): 16.7%
- share of patients with best response partial response (PR) ([1]; Phase 1, six evaluable patients (4/6)): 66.6%
- Best response [1, 16]: SD
- Best response [1, 17]: PR
- Best response [1, 18]: PR
- subjects discontinued due to disease progression [2, 19]: 8 subjects
- partial responses (PR) as best responses ([2]; endometrial cancer, first-line treatment, eight subjects): five partial responses
- Objective response rate (ORR) ([2]; endometrial cancer, first-line treatment, eight subjects Phase 2a (5/8)): 62.5%
- disease control rate (DCR) ([2]; endometrial cancer, first-line treatment, eight subjects Phase 2a (6/8)): 75%
- complete response (CR) as best responses [2, 20]: one complete response
- partial responses (PR) as best responses [2, 20]: five partial responses
- disease control rate (DCR) ([2]; endometrial cancer, second- and further-line treatment, eleven subjects (9/11)): 82%
- Objective response rate (ORR) ([2]; endometrial cancer, second- and further-line treatment, eleven subjects Phase 1 and 2a (6/11)): 54.5%
- Best response ([2]; single endometrial cancer subjects, Phase 2a, 8 mg daily + paclitaxel/carboplatin, December 2018): CR and PR and SD
- Best Response (% reduction) [3]: SD
- subjects discontinued due to toxicity [4, 19]: 1 subject
- TEAE abdominal pain ([4]; Phase 2a, % of all TEAEs): 4.20%
- TEAE alopecia ([4]; Phase 2a, % of all TEAEs): 1.3%
- TEAE anaemia ([4]; Phase 2a, % of all TEAEs): 1.8%
- TEAE arthralgia ([4]; Phase 2a, % of all TEAEs): 1.6%
- TEAE asthenia ([4]; Phase 2a, % of all TEAEs): 2.2%
- TEAE back pain ([4]; Phase 2a, % of all TEAEs): 1.5%
- TEAE constipation ([4]; Phase 2a, % of all TEAEs): 2.7%
- TEAE decreased appetite ([4]; Phase 2a, % of all TEAEs): 2.7%
- TEAE diarrhea ([4]; Phase 2a, % of all TEAEs): 6.3%
- TEAE dyspnea ([4]; Phase 2a, % of all TEAEs): 1%
- TEAE epistaxis ([4]; Phase 2a, % of all TEAEs): 3%
- TEAE fatigue ([4]; Phase 2a, % of all TEAEs): 4.5%
- TEAE flatulence ([4]; Phase 2a, % of all TEAEs): 1.5%
- TEAE headache ([4]; Phase 2a, % of all TEAEs): 3.2%
- TEAE hypertension ([4]; Phase 2a, % of all TEAEs): 3.3%
- TEAE hypokalemia ([4]; Phase 2a, % of all TEAEs): 1.3%
- TEAE hypomagnesaemia ([4]; Phase 2a, % of all TEAEs): 1%
- TEAE insomnia ([4]; Phase 2a, % of all TEAEs): 1.3%
- TEAE nausea ([4]; Phase 2a, % of all TEAEs): 4.7%
- TEAE neuropathy peripheral ([4]; Phase 2a, % of all TEAEs): 2%
- TEAE neutropenia ([4]; Phase 2a, % of all TEAEs): 2%
- TEAE neutrophil count decreased ([4]; Phase 2a, % of all TEAEs): 1%
- TEAE pain in extremity ([4]; Phase 2a, % of all TEAEs): 1.7%
- TEAE pyrexia ([4]; Phase 2a, % of all TEAEs): 1.2%
- TEAE thrombocytopenia ([4]; Phase 2a, % of all TEAEs): 1.7%
- TEAE urinary tract infection ([4]; Phase 2a, % of all TEAEs): 1.3%
- TEAE vomiting ([4]; Phase 2a, % of all TEAEs): 2.8%
- TEAE weight decreased ([4]; Phase 2a, % of all TEAEs): 1%
- dose limiting toxicity (DLT) events ([5]; 10 mg daily group, three patients, oral Day 8-21 of 21-day cycle + paclitaxel/carboplatin Day 1): one of the patients
- dose limiting toxicity (DLT) events during the primary safety evaluation period ([5]; 12 mg daily group, three patients, oral Day 8-21 of 21-day cycle + paclitaxel/carboplatin Day 1): two of the patients out of three
- safe daily dosage ([5]; 21-day cycle (14 days on, 7 off) combined with paclitaxel and carboplatin (or cisplatin)): 8 mg
- recommended phase 2 dose (RP2D) ([5]; oral once daily Day 8-21 of 21-day cycle with platinum-based chemotherapy Day 1): 8 mg

Compound: COc1cc2c(Oc3ccc4[nH]c(C)cc4c3F)ccnc2cc1OCC1(N)CC1 [AL3818, (1-[[4-(4-fluoro-2-methyl-1H-indol-5-yloxy)-6-methoxyquinolin-7-yl]oxy]methyl]cyclopropaneamine]
- Best response ([1]; single subject, cervical cancer, initial daily dosage 12 mg + standard platinum-based chemotherapy): NE/SAE
- Best response ([1]; single subject, endometrial cancer, initial daily dosage 10 mg + standard platinum-based chemotherapy): PR
- Best response [1, 16]: SD
- Best response [1, 17]: PR
- Best response ([1]; single subjects, ovarian cancer, initial daily dosage 10 mg + standard platinum-based chemotherapy): CR and NE/SAE
- Best response [1, 18]: NE/SAE and PR
- DLT [6]: one DLT
- inhibition of VEGFR1 activity [7]: could inhibit
- inhibition of VEGFR2/KDR activity [8]: could inhibit
- inhibition of VEGFR3 activity [9]: could inhibit
- inhibition of FGFR1 [10]: strong inhibitor
- inhibition of FGFR2 [11]: strong inhibitor
- inhibition of FGFR3 [12]: strong inhibitor
- inhibition of PDGFR-a [13]: strong inhibitor
- inhibition of c-KIT [14]: strong inhibitor
- anti-tumor effect of combination with chemotherapy agents [15]: synergistic anti-tumor effects
- dose limiting toxicity (DLT) events ([5]; 8 mg daily group, three patients, oral Day 8-21 of 21-day cycle + paclitaxel/carboplatin Day 1): no patient
- tolerability of daily dosage of 12 mg ([5]; 12 mg daily together with platinum-based chemotherapy): too high
- TEAE abdominal pain ([5]; Phase 1, nine subjects): 2.88%
- TEAE alopecia ([5]; Phase 1, nine subjects): 2.91%
- TEAE chest pain ([5]; Phase 1, nine subjects): 1.92%
- TEAE dehydration ([5]; Phase 1, nine subjects): 1.92%
- TEAE diarrhea ([5]; Phase 1, nine subjects): 4.81%
- TEAE dizziness ([5]; Phase 1, nine subjects): 2.88%
- TEAE fatigue ([5]; Phase 1, nine subjects): 4.81%
- TEAE hypertension ([5]; Phase 1, nine subjects): 2.88%
- TEAE nausea ([5]; Phase 1, nine subjects): 9.62%
- TEAE pulmonary embolism ([5]; Phase 1, nine subjects): 1.92%
- TEAE sore throat ([5]; Phase 1, nine subjects): 1.92%
- TEAE thrombocytopenia ([5]; Phase 1, nine subjects): 1.94%
- TEAE urinary tract infection ([5]; Phase 1, nine subjects): 2.88%
- TEAE vomiting ([5]; Phase 1, nine subjects): 5.77%
- TEAE weakness generalized ([5]; Phase 1, nine subjects): 2.88%
- subjects reporting treatment emergent adverse events (TEAE) ([5]; Phase 1, nine subjects (9/9)): 100%
